Source: patent US10912777B2 (Academia Sinica, priority 2016, dated 2021)
Where two headings read alike, the source gives them in different places.

Columns and labels:
HCC cell lines = HCC cell lines carrying amplified SLC29A2 vs non-amplified cells; FIG. 5A
Procedure: The cell proliferation and cell viability were detected by […] BLUE® reagent (DAL1100, Thermo Fisher) according to the manufacturer's instruction. […] BLUE® for incubation at 37° C. for 1 hour. The ALAMAR BLUB® fluorescence was excited at 560 nm and measured at 590 nm.

SK-hep1 cells = assay: Cell viability assay (ALAMAR BLUE), SK-hep1 cells with or without ectopic SLC29A2; format: cell-based
Procedure: HCC cell lines (Sk-hep1 and Mahlavu) were maintained in Dulbecco's modified Eagle's medium (DMEM) with 10% fetal bovine serum, 1% non-essential amino acid, 1% L-glutamine, and 1% penicillin/streptomycin. All cells were tested for mycoplasma contamination.
pcDNA3.0/HA˜SLC29A2 was generated according to Chen et al. (2010) (Hepatologs, 52(5), 1690-1701), To stably express SLC29A2 or STAT3D, HCC cell lines were transfected with the plasmid according to the instruction manual by JetPrime transfection reagent (Polyplus), and further selected in the presence of G418 (SK-hep1: 800 μg/mL, Mahlavu: 500 μg/mL)

SLC29A2-expressing cells = assay: Trans-well (Boyden chamber) migration assay; format: cell-based; details: SLC29A2 ectopically expressing cells; FIG. 5C
Procedure: A total of 1×10^4 cells were seeded in the upper chamber of 8 micron Boyden chamber insert (#MCEP24H48, Millipore) containing a serum-free medium. The inserts were then hanged on the 24-well plate containing a complete medium. After 16 hours, the non-migrated cells were wiped out and the migrated cells were fixed with methanol and stained with Liu's stain. The migrated cells were counted by ImageJ software.

SLC29A2 = assay: Confocal microscopy of nuclear translocation; format: cell-based; details: FIG. 5E
Procedure: Cells were grown on glass slides. After washing with ice-cold PBS, cells were fixed with methanol, blocked with 5% BSA, and incubated with primary antibodies at 4° C. overnight. The slides were washed with PBS, and incubated with Alexa488 or AIexa594-conjugated secondary antibodies. The slides were then washed with PBS, stained with DAPI and mounted with Dako fluorescent mounting medium (#S3025, Dako). The immunostained cells were acquired by Zeiss LSM 700 laser-scanning microscope with 63X/1.4 objective. The images were analyzed with ZEN, AxioVision, and imagesJ software.

Stat3 = details: SLC29A2 ectopically expressing cells, FIG. 5D; for SLC29A2-induced Stat3 phosphorylation: 6B
late-stage HCC = details: cited from earlier work
[1] = test system: luciferase-carrying SK-hep1 cells
Procedure: All animal procedures were conducted under the approval of the institutional animal care and user committee of Academia Sinica. […] The luciferase activities were detected by the IVIS Image system every two weeks, and the images were analyzed with IVIS operating software.
The mice wore sacrificed 48 weeks after the tumor injection or before the tumors grew larger than allowed. The tumor samples were collected and fixed with 4% paraformaldehyde.

SMILES | sensitivity of cells to dipyridamole (cell viability, IC50) (HCC cell lines) | sensitivity of cells to dipyridamole (cell viability) (SK-hep1 cells; SK-hep1 cells expressing SLC29A2 vs control cells, FIG. 5B) | trans-well migration (SLC29A2-expressing cells) | Stat3 nuclear translocation (SLC29A2) | nuclear translocation of SLC29A2 (SLC29A2) | cyclin D1 down-regulation (Stat3) | SLC29A2-induced Stat3 phosphorylation (Stat3) | SLC29A2-induced Stat3 phosphorylation (Stat3; listed as SLC29A2 inhibitor) | resistance of cells to sorafenib (cell viability) (SK-hep1 cells; SLC29A2 expressing cells vs control cells, FIG. 6A) | prolongation of overall survival (late-stage HCC; late-stage HCC patients who received sorafenib) | side effects (late-stage HCC; patients who received sorafenib) | body weight changes and toxicity to mice ([1]; mouse, in vivo) | tumor burden (IVIS) ([1]; oral gavage once a day, sorafenib 10 mg/kg/day, dipyridamole 25 mg/kg/day, 6 weeks after treatment, FIG. 6D)
OCCN(CCO)c1nc(N2CCCCC2)c2nc(N(CCO)CCO)nc(N3CCCCC3)c2n1 [dipyridamole] | sensitive to dipyridamole compared to non-amplified cells | sensitive to dipyridamole than control cells | reduced trans-well migration of SLC29A2-expressing cells | decreased SLC29A2 and Stat3 nuclear translocation | reduces the nuclear translocation of SLC29A2 | down-regulation of cyclin D1 was reversed | inhibits the SLC29A2-induced Stat3 phosphorylation | decreased SLC29A2-induced Stat3 phosphorylation in a dosage-dependent manner |  |  |  |  | 
CNC(=O)c1cc(Oc2ccc(NC(=O)Nc3ccc(Cl)c(C(F)(F)F)c3)cc2)ccn1 [sorafenib] |  |  |  |  |  |  |  |  | much more resistant to sorafenib as compared to the control cells | 3˜6 months | severe side effects | no significant body weight changes and toxicity | reduced the tumor burden in both SLC29A2-expressing and control groups
